Laboratory results as given in patent US20140080758A1, “TREATMENT OF KIDNEY DISORDERS WITH VIP FRAGMENTS” (Vectus […] Limited, priority 2008, published 2014).

Test system: spontaneously hypertensive rats (SHR) on 2.2% salt diet
Assay: Renal interstitial fibrosis after 4-week peptide infusion in SHR on 2.2% salt diet
Assay type: in vivo, rat
Settings: infusion 5 pmol/kg/min intravenously by osmotic minipump for 4 weeks, versus vehicle control, fibrosis as percent surface area
From the text: For kidney fibrosis experiments, two types of rats were used, spontaneously hypertensive rats (SHR) and normotensive control Wistar-Kyoto rats (WKY) (animals were obtained from Australian Animal Resources, Perth, Western Australia, Australia)
i) Male spontaneously hypertensive (SHR) rats on 2.2% salt diet ii) Male Wistar Kyoto (WKY) rats on 4.4% salt diets
Commencing at 12 weeks of age, the rats were acclimatized to tail cuff blood pressure measurements and handling for 2 weeks. They then underwent operative insertion of an osmotic minipump (Alzet—Manufacturer: Durect Corporation, Cupertino, Calif., USA; Supplier: Bioscientific Gymea, NSW, Australia) which was designed to deliver vehicle alone (Hartman's solution, Baxter Health Care Corporation, USA)—(Controls) or VIP, VIP fragment or analogue at a dose of 4 pmol/kg/min or 5 pmol/kg/min intravenously.
The infusion was continued for 4 weeks, during which the rats were weighed and their blood pressures measured twice weekly. At the end of the 4 week infusion period, the rats were anaesthetized and their kidneys harvested. […]
For quantitation of interstitial fibrosis, twenty microscopic fields from each kidney were digitized and the amount of fibrosis in each determined as percent surface area using Image-Pro Plus V5.0 software (Cybernetics). The mean value for each rat and subsequently for each infusion group was then determined.

His-Ser-Asp-Ala-Val-Phe-Thr-Asp-Asn-Tyr-Thr-Arg-Leu-Arg-Lys-Gln-Met-Ala-Val-Lys-Lys-Tyr-Leu-Asn-Ser-Ile-Leu-Asn (HSDAVFTDNYTRLRKQMAVKKYLNSILN; listed as Homo sapiens) [VIP]
renal interstitial fibrosis: reductions in renal interstitial fibrosis
